Measurements as given in ChEMBL document CHEMBL1128833, “Aliphatic replacements of the biphenyl moiety of the nonpeptidyl growth hormone secretagogues L-692,429 and L-692,585” (1995).

species on record: Rattus norvegicus; assay: In vitro Growth hormone releasing activity in rat pituitary cells; weakly active at 1 uM; assay type: functional; conditions: Pituitary gland cell, read-out: ED50 (the source's name)

`CC(C)(N)CC(=O)N[C@@H]1CCc2ccccc2N(Cc2ccc(-c3ccccc3)c(-c3nn[nH]n3)c2)C1=O` gave an EC50 of over 1000 nM.

species on record: Rattus norvegicus; assay: In vitro Growth hormone releasing activity in rat pituitary cells; assay type: functional, Pituitary gland cell; conditions: Rattus norvegicus, Pituitary gland cell; read-out: ED50 (the source's name)

Going from `CC(C)(N)CC(=O)N[C@@H]1CCc2ccccc2N(Cc2ccccc2)C1=O` to `CC(C)(N)CC(=O)N[C@@H]1CCc2ccccc2N(Cc2ccc(-c3ccccc3)cc2)C1=O`, the EC50 falls from 7000 nM to 3000 nM (2.3-fold).

Going from `CC(C)(N)CC(=O)N[C@@H]1CCc2ccccc2N(CC2CCC(c3ccccc3-c3nn[nH]n3)CC2)C1=O` (stereo partly specified) to `C[C@@H](O)CNC(C)(C)CC(=O)N[C@@H]1CCc2ccccc2N(CC2CCC(c3ccccc3-c3nn[nH]n3)CC2)C1=O` (stereo partly specified), the EC50 falls from 860 nM to 75 nM (11-fold).

Compared with `CC(C)(N)CC(=O)N[C@@H]1CCc2ccccc2N(Cc2ccc(-c3ccccc3-c3nn[nH]n3)cc2)C1=O`, `C[C@@H](O)CNC(C)(C)CC(=O)N[C@@H]1CCc2ccccc2N(Cc2ccc(-c3ccccc3-c3nn[nH]n3)cc2)C1=O` [L-692585] is 20-fold lower in EC50: 60 nM for the first, 3 nM for the second. The second is the more potent here.

same assay, conditions: read-out: ED50 (the source's name)

Compared with `CC(C)(N)CC(=O)N[C@@H]1CCc2ccccc2N(CC2=CCC(c3ccccc3-c3nn[nH]n3)CC2)C1=O` (stereo in doubt; 34), `C[C@@H](O)CNC(C)(C)CC(=O)N[C@@H]1CCc2ccccc2N(CC2=CCC(c3ccccc3-c3nn[nH]n3)CC2)C1=O` (stereo in doubt; 36) is 48-fold lower in EC50: 1200 nM for the first, 25 nM for the second. The second is the more potent here.

Compared with `CC(C)(N)CC(=O)N[C@@H]1CCc2ccccc2N(CC2=CCC(c3ccccc3-c3nn[nH]n3)CC2)C1=O` (stereo in doubt; 35), `C[C@@H](O)CNC(C)(C)CC(=O)N[C@@H]1CCc2ccccc2N(CC2=CCC(c3ccccc3-c3nn[nH]n3)CC2)C1=O` (stereo in doubt; 37) is 17-fold lower in EC50: 120 nM for the first, 7 nM for the second.
